How the values were obtained:
Assay type in all cases: in vivo
[1] = tested on: Renal hypertensive awaken rat; assay: Anti-hypertensive activity in the renal hypertensive awaken rat (Grollman method), arterial pressure by bloodless method; conditions: oral; for ED20: read-out: ED20 orally
Method: Some illustrative results obtained in the renal hypertensive awaken rat according to the method of A. Grollman (Proc. Soc. Exptl. Biol. Med., 57, 102, 1944) are given in Table 1. The products were administered orally to groups of 4 rats for each dosage level. The arterial pressure was measured by bloodless method immediately before and at the 1st, 3rd, 5th, 7th, 12th, 24th, 36th, 48th and 60th hour after administration.
x ED20 = dose producing a 20% fall in pressure compared to the basal

Mouse = assay: Acute toxicity in the mouse, intraperitoneal (approximate LD50); conditions: 6 dosage levels
Method: (§1) The evaluation of the acute toxicity was carried out in the mouse administering the products by the intraperitoneal route at 6 different dosage levels. The approximate LD50 was determined thereafter.

[2] = as above; conditions: in vivo, ip, 6 dosage levels, read-out: Mouse LD50 i.p.
Method: as §1

[3] = dose producing a 20% fall in pressure compared to the basal value

Compound | Time in hours of half effect appearance [1] [h] | Time in hours of maximum effect appearance [1] [h] | ED20 orally [1, 3] [mg/kg] | Mouse LD50 i.p. (Mouse) [mg/kg] | ED20 [1, 3] [mg/kg] | LD50 [2] [mg/kg]
CCOC(=O)NNc1nncc2ccccc12 [Binazin, reference compound] | 20 | 3 | 7 | 500 |  | 
CCOC(=O)NNc1ccc(N(C)CC(C)O)nn1 (centres unmarked) [Example 3, 3-(2-Carbethoxyhydrazino)-6-[N-(2-hydroxypropyl)methylamino]-pyridazine] | 36 | 5 |  |  | 1 | 700
C=CCN(CC=C)c1ccc(NNC(=O)OCC)nn1 [Example 5, 3-(2-Carbethoxyhydrazino)-6-diallylaminopyridazine] | 48 | 5 |  |  | 1 | 300
CCOC(=O)NNc1ccc(N(CC)CC(C)O)nn1 (centres unmarked) [Example 6, 3-(2-Carbethoxyhydrazino)-6-[N-(2-hydroxypropyl)ethylamino]-pyridazine] | 36 | 5 |  |  | 1 | 700
NNc1nncc2ccccc12 [Hydralazine, reference compound] | 5 | 1 |  |  | 3 | 100
